From patent US9938322B2, “β-hairpin peptidomimetics” (priority 2013, dated 2018)
Where a SMILES comes first, the peptide text is derived from it. [ ]: non-standard residue; d: D form. Tle = CC(C)(C)[C@H](N)C(=O)O; dDab = NCC[C@@H](N)C(=O)O; Orn = NCCC[C@H](N)C(=O)O; Dab = NCC[C@H](N)C(=O)O; Nva = CCC[C@H](N)C(=O)O

Test system: human red blood cells (hRBC)
Test: Hemolysis of human red blood cells
Assay type: cell-based
Settings: red cells of human, 1 h, 100
How it was run: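 Washed fresh human erythrocytes (20% v/v, about 0.9×10^9 cells/ml final) incubated with peptide at 100 μg/ml for 1 h at 37° C with shaking. Supernatant OD540 read; hemolysis expressed relative to 2.5% Triton X-100 (100%) and PBS with 0.001% acetic acid (0%).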

SMILES | Hemolysis at 100 μg/ml [%]
CCC[C@@H]1NC(=O)[C@@H]2CCCN2C(=O)[C@H]2CCCN2C(=O)[C@H](CO)NC(=O)[C@H](CO)NC(=O)[C@H](C(C)(C)C)NC(=O)[C@H](CCN)NC(=O)[C@H](Cc2c[nH]c3ccccc23)NC(=O)[C@H](CCN)NC(=O)[C@@H](CCN)NC(=O)[C@H](CCCN)NC(=O)[C@H](CCN)NC(=O)[C@H](Cc2ccc(O)cc2)NC(=O)[C@H](CO)NC1=O [compound 118] (cyclo([Nva]SY[Dab][Orn][dDab][Dab]W[Dab][Tle]SS[dP]P)) | 1
CC(C)C[C@@H]1NC(=O)[C@@H]2CCCN2C(=O)[C@H]2CCCN2C(=O)[C@H](CO)NC(=O)[C@H](CC(N)=O)NC(=O)[C@H](C(C)(C)C)NC(=O)[C@H](CCN)NC(=O)[C@H](Cc2c[nH]c3ccccc23)NC(=O)[C@H](CCN)NC(=O)[C@@H](CCN)NC(=O)[C@H](CCCN)NC(=O)[C@H](CCN)NC(=O)[C@H](Cc2ccc(O)cc2)NC(=O)[C@H]([C@@H](C)O)NC1=O [compound 119] (cyclo(LTY[Dab][Orn][dDab][Dab]W[Dab][Tle]NS[dP]P)) | 1
CC(C)C[C@@H]1NC(=O)[C@@H]2CCCN2C(=O)[C@H]2CCCN2C(=O)[C@H](CO)NC(=O)[C@H]([C@@H](C)O)NC(=O)[C@H](C(C)(C)C)NC(=O)[C@H](CCN)NC(=O)[C@H](Cc2c[nH]c3ccccc23)NC(=O)[C@H](CCN)NC(=O)[C@@H](CCN)NC(=O)[C@H](CCCN)NC(=O)[C@H](CCN)NC(=O)[C@H](Cc2ccc(O)cc2)NC(=O)[C@H](CC(N)=O)NC1=O [compound 120] (cyclo(LNY[Dab][Orn][dDab][Dab]W[Dab][Tle]TS[dP]P)) | 0
CC(C)C[C@@H]1NC(=O)[C@@H]2CCCN2C(=O)[C@H]2CCCN2C(=O)[C@H](CO)NC(=O)[C@H](CC(N)=O)NC(=O)[C@H](C(C)(C)C)NC(=O)[C@H](CCN)NC(=O)[C@H](Cc2c[nH]c3ccccc23)NC(=O)[C@H](CCN)NC(=O)[C@@H](CCN)NC(=O)[C@H](CCCN)NC(=O)[C@H](CCN)NC(=O)[C@H](Cc2ccc(O)cc2)NC(=O)[C@H](CC(N)=O)NC1=O [compound 121] (cyclo(LNY[Dab][Orn][dDab][Dab]W[Dab][Tle]NS[dP]P)) | 0
CC(C)C[C@@H]1NC(=O)[C@@H]2CCCN2C(=O)[C@H]2CCCN2C(=O)[C@H](CO)NC(=O)[C@H]([C@@H](C)O)NC(=O)[C@H](C(C)(C)C)NC(=O)[C@H](CCN)NC(=O)[C@H](Cc2c[nH]c3ccccc23)NC(=O)[C@H](CCN)NC(=O)[C@@H](CCN)NC(=O)[C@H](CCCN)NC(=O)[C@H](CCN)NC(=O)[C@H](Cc2ccc(O)cc2)NC(=O)[C@H]([C@@H](C)O)NC1=O [compound 122] (cyclo(LTY[Dab][Orn][dDab][Dab]W[Dab][Tle]TS[dP]P)) | 0
CC(C)C[C@@H]1NC(=O)[C@@H]2CCCN2C(=O)[C@H]2CCCN2C(=O)[C@H](CO)NC(=O)[C@H](CC(N)=O)NC(=O)[C@H](C(C)(C)C)NC(=O)[C@H](CCN)NC(=O)[C@H](Cc2c[nH]c3ccccc23)NC(=O)[C@H](CCN)NC(=O)[C@@H](CCN)NC(=O)[C@H](CCCN)NC(=O)[C@H](CCN)NC(=O)[C@H](Cc2ccc(O)cc2)NC(=O)[C@H](CC(=O)O)NC1=O [compound 123] (cyclo(LDY[Dab][Orn][dDab][Dab]W[Dab][Tle]NS[dP]P)) | 0
CC(C)C[C@@H]1NC(=O)[C@@H]2CCCN2C(=O)[C@H]2CCCN2C(=O)[C@H]([C@@H](C)O)NC(=O)[C@H](CO)NC(=O)[C@H](C(C)(C)C)NC(=O)[C@H](CCN)NC(=O)[C@H](Cc2c[nH]c3ccccc23)NC(=O)[C@H](CCN)NC(=O)[C@@H](CCN)NC(=O)[C@H](CCN)NC(=O)[C@H](CCN)NC(=O)[C@H](Cc2ccc(O)cc2)NC(=O)[C@H]([C@@H](C)O)NC1=O [compound 124] (cyclo(LTY[Dab][Dab][dDab][Dab]W[Dab][Tle]ST[dP]P)) | 0.5
